Data on 8 compounds can be found in ChEMBL document CHEMBL2311454, “Discovery and evaluation of novel inhibitors of mycobacterium protein tyrosine phosphatase B from the 6-Hydroxy-benzofuran-5-carboxylic acid scaffold” (J Med Chem, 2013).

As usually defined, the IC50 is the concentration needed to halve the response being measured. Low values mean greater potency, high ones weaker potency.

Test [1] concerns the target Dual specificity protein phosphatase 3 (Homo sapiens, UniProt P51452). The test can be described thus: Inhibition of VHR (unknown origin) expressed in Escherichia coli using pNPP substrate after 5 mins by spectrophotometric analysis.
Test [2] has as its target T1, Tyrosine-protein phosphatase non-receptor type 9 (Homo sapiens, UniProt P43378).
T1 sequence (P43378 whole entry): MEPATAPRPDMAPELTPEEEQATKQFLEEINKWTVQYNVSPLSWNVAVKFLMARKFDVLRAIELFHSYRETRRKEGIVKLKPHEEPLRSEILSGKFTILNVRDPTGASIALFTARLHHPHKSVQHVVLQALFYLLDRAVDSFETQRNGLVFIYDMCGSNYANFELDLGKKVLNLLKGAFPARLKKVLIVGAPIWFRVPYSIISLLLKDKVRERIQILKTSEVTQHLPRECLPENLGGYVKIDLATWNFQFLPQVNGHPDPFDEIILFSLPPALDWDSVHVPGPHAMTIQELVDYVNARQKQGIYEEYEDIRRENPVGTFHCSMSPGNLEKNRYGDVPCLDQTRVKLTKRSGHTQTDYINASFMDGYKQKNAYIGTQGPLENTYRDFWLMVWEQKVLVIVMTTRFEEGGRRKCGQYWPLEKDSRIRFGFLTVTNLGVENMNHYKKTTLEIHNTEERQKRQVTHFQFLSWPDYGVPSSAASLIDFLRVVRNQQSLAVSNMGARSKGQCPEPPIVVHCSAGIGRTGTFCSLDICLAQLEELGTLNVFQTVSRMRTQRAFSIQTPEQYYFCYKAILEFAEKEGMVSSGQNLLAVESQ
The test can be described thus: Inhibition of PTPMEG2 (unknown origin) expressed in Escherichia coli using pNPP substrate after 5 mins by spectrophotometric analysis.

Test [3] concerns the target T2, Tyrosine-protein phosphatase non-receptor type 22 (Homo sapiens, UniProt Q9Y2R2).
T2 sequence (Q9Y2R2 whole entry): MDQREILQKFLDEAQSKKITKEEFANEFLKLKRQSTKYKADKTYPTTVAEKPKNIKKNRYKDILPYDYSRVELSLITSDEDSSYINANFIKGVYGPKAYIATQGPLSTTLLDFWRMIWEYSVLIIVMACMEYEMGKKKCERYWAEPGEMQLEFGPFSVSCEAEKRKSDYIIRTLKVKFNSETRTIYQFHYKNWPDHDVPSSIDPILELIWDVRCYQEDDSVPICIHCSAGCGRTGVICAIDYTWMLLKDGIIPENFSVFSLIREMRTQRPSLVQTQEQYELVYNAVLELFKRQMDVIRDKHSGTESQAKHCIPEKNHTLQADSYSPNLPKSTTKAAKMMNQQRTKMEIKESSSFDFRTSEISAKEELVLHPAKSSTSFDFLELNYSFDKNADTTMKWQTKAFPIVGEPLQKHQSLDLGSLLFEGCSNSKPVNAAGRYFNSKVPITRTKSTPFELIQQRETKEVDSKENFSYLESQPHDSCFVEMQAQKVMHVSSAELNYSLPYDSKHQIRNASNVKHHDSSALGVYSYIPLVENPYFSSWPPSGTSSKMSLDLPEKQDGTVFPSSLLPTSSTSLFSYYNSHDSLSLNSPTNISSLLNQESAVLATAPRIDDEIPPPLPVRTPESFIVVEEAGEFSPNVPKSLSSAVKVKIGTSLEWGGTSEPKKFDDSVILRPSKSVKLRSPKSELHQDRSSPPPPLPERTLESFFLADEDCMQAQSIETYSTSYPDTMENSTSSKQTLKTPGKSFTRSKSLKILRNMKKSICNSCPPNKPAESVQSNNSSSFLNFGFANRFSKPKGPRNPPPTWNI
The test can be described thus: Inhibition of LYP (unknown origin) expressed in Escherichia coli using pNPP substrate after 5 mins by spectrophotometric analysis.

For test [4], the target named is T3, Tyrosine-protein phosphatase non-receptor type 11 (Homo sapiens, UniProt Q06124).
T3 sequence (Q06124 whole entry): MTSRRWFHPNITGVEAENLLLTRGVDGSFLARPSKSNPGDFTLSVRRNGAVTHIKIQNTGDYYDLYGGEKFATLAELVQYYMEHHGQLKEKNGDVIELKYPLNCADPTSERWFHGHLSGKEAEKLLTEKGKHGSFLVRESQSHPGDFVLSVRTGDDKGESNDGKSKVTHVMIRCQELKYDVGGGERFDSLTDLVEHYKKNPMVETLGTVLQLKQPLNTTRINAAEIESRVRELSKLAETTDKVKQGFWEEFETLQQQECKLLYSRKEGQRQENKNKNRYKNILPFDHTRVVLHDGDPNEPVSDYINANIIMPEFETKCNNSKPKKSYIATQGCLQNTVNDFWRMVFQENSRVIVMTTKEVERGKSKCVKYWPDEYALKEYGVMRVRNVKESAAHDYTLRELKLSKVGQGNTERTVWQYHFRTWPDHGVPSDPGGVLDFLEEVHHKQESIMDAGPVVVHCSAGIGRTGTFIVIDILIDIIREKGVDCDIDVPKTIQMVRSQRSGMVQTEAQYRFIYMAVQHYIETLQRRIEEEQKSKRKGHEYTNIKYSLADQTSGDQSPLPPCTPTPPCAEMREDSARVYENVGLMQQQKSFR
The test can be described thus: Inhibition of SHP2 (unknown origin) expressed in Escherichia coli using pNPP substrate after 5 mins by spectrophotometric analysis.

Sequence of Dual specificity protein phosphatase 3 (P51452 whole entry): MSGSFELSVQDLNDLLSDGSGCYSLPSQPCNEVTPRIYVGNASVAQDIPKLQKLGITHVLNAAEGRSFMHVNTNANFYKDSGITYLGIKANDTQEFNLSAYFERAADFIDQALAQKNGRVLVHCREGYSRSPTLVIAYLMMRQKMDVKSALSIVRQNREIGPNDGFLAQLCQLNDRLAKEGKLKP

Take `C[C@]12CCC(=O)C=C1CC[C@@H]1[C@@H]2CC[C@@]2(C)[C@H]1CC[C@]2(O)C#Cc1c(-c2ccccc2)oc2cc(O)c(C(=O)O)cc12`: the IC50 in test [1] was greater than 100 µM; in test [2], greater than 100 µM; in test [3] it was 12.2 µM; in test [4], 30 µM.

On to `O=C(O)c1cc2c(/C=C\c3cc(F)cc(F)c3)c(-c3ccccc3)oc2cc1O`, for which the IC50 in test [1] is 8.6 µM; in test [2], 9.2 µM; in test [3], 3.7 µM; in test [4], 5 µM.

As to `O=C(O)c1cc2c(CCc3cccc(C(F)(F)F)c3)c(-c3ccccc3)oc2cc1O`, the IC50 in test [1] was 6.2 µM; in test [2], 8.6 µM; in test [3] it was 3.5 µM; in test [4], 4.5 µM.

In the case of `O=C(O)c1cc2c(CCc3ccc(OC(F)(F)F)cc3)c(-c3ccccc3)oc2cc1O`, the IC50 in test [1] came out at 6.7 µM; in test [2], 8.4 µM; in test [3], 4.1 µM.

`O=C(O)c1cc2c(CCc3ccc(Oc4ccccc4)cc3)c(-c3ccccc3)oc2cc1O`: the IC50 in test [1] stood at 6.3 µM; in test [2], 7.7 µM; in test [3] it was 2.2 µM; in test [4] it was 3.6 µM.

For `C#Cc1c(-c2ccccc2)oc2cc(O)c(C(=O)O)cc12`, the IC50 in test [1] is greater than 50 µM; in test [2], 85 µM; in test [3] it was 50 µM; in test [4] it was 31 µM.

For the compound `O=C(O)c1cc2c(C#CCO)c(-c3ccccc3)oc2cc1O`, the IC50 in test [1], in test [2], in test [3] and in test [4] was greater than 100 µM throughout.

Turning to `O=C(O)c1cc2c(CCc3cccc(F)c3)c(-c3ccccc3)oc2cc1O`, the IC50 in test [1] worked out at 22 µM; in test [2], 110 µM; in test [3], 12.4 µM; in test [4] it was 10.9 µM.
